Experimental data as given in patent US20230055237A1, “COMPOUNDS AND METHODS FOR THE TREATMENT OF CYSTIC FIBROSIS” (Flatley Discovery Lab, LLC, priority 2019, published 2023).

Target: T1, CFTR (Homo sapiens, UniProt P13569, DEL508-508)
T1 construct: Primary CF airway epithelial cells were obtained from the UNC Cystic Fibrosis Tissue Procurement and Cell Culture Core; host or cells: primary CF airway epithelial cells, differentiated at the air-liquid interface
Test: Equivalent current assay in primary CF airway epithelial cells (NAUC, combination with 1st site corrector FDL169 or VX-809)
Format: cell-based
Settings: 37° C., 24 h

[1] = test compound 1 μM in combination with 1st site corrector VX-809 (3 μM)
[2] = test compound 3 μM in combination with 1st site corrector VX-809 (3 μM)
[3] = test compound 10 μM in combination with 1st site corrector VX-809 (3 μM)
[4] = test compound 1 μM in combination with 1st site corrector FDL169 (3 μM)
[5] = test compound 3 μM in combination with 1st site corrector FDL169 (3 μM)
[6] = test compound 10 μM in combination with 1st site corrector FDL169 (3 μM)

T1 sequence (P13569 with tags, fused parts or gaps DEL508-508): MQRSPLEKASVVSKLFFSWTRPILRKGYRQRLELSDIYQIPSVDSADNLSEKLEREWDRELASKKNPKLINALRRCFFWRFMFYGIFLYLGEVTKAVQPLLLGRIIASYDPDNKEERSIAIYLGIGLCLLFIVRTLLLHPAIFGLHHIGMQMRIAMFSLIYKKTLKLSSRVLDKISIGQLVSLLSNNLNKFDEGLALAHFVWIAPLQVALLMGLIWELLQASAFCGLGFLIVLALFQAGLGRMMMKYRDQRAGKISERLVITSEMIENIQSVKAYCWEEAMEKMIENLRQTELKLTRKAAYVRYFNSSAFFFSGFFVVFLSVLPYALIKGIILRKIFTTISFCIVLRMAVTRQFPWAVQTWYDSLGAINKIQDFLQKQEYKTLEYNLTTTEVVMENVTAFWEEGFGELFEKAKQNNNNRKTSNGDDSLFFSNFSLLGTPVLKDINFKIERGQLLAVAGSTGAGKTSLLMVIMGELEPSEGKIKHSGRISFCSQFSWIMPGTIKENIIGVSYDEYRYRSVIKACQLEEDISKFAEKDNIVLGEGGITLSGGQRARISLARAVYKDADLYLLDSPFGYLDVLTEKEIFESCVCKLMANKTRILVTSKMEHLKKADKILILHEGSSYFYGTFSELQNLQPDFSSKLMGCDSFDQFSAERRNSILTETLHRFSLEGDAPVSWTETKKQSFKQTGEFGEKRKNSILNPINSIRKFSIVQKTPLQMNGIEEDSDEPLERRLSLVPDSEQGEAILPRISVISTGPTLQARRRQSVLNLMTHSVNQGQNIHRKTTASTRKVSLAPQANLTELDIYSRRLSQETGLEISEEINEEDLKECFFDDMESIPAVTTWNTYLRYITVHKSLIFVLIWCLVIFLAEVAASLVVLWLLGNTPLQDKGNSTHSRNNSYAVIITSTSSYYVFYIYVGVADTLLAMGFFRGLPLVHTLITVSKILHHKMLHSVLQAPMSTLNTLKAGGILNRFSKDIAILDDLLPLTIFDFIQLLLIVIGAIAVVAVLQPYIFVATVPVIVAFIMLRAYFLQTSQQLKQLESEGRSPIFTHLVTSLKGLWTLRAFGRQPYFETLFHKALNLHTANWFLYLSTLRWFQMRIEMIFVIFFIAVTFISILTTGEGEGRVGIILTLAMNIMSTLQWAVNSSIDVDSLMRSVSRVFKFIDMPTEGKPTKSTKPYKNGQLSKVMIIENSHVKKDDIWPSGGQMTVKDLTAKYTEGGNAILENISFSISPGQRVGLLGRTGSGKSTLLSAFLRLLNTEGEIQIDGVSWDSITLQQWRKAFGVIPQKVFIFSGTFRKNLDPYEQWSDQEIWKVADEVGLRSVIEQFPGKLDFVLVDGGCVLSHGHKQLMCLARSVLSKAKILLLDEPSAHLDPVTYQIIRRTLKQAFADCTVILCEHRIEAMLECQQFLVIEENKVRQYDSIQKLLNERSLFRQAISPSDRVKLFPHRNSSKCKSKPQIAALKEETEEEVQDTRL

## CN(C(=O)[C@H]1[C@@H](C(F)(F)F)NC2(C(=O)N(C)c3c(Cl)cc(Cl)cc32)[C@H]1C(=O)O)c1cc(Cl)cc(Cl)c1 (mixture of isomers) [Example 271, rac-(3′S,4′R,5′S)-5,7-dichloro-4′-((3,5-dichlorophenyl)(methyl)carbamoyl)-1-methyl-2-oxo-5′-(trifluoromethyl)spiro[indoline-3,2′-pyrrolidine]-3′-carboxylic acid]
[1]
  Nauc @ 1 μM: + (NAUC “+” refers to an observed NAUC <140% of positive control)
[2]
  Nauc @ 3 μM: +++ (NAUC “+++” refers to an observed NAUC>170% of positive control)
[3]
  Nauc @ 10 μM: + (NAUC “+” refers to an observed NAUC <140% of positive control)

## CN1C(=O)[C@]2(c3cc(Cl)cc(Cl)c31)[C@@H](C(=O)O)[C@@H](C(=O)N(CC1CC1)c1cc(Cl)cc(Cl)c1)[C@H]1CC(F)(F)CN12 [Example 202]
[4]
  Nauc @ 1 μM: ++ (NAUC “++” refers to an observed NAUC 170-140% of positive control)
[5]
  Nauc @ 3 μM: ++ (NAUC “++” refers to an observed NAUC 170-140% of positive control)
[6]
  Nauc @ 10 μM: + (NAUC “+” refers to an observed NAUC <140% of positive control)

## O=C(O)[C@H]1[C@@H](C(=O)N(CC23CC4CC(CC(C4)C2)C3)c2cc(Cl)cc(Cl)c2)[C@H]2CC(F)(F)CN2[C@]12C(=O)Nc1c(Cl)cc(Cl)cc12 [Example 194]
[4]
  Nauc @ 1 μM: ++ (NAUC “++” refers to an observed NAUC 170-140% of positive control)
[5]
  Nauc @ 3 μM: +++ (NAUC “+++” refers to an observed NAUC>170% of positive control)

## O=C(O)[C@H]1[C@@H](C(=O)N(CC2(C(F)(F)F)CC2)c2cc(Cl)cc(Cl)c2)[C@H]2CC(F)(F)CN2[C@]12C(=O)Nc1c(Cl)cc(Cl)cc12 [Example 155]
[4]
  Nauc @ 1 μM: +++ (NAUC “+++” refers to an observed NAUC>170% of positive control)
[5]
  Nauc @ 3 μM: +++ (NAUC “+++” refers to an observed NAUC>170% of positive control)
[6]
  Nauc @ 10 μM: + (NAUC “+” refers to an observed NAUC <140% of positive control)

## O=C(Nc1cc(Cl)cc(Cl)c1)C1C(C(F)(F)c2ccccn2)NC2(C(=O)Nc3c(Cl)cc(Cl)cc32)C1C(=O)O (centres unmarked) [Example 72.b]
[3]
  Nauc @ 10 μM: + (NAUC “+” refers to an observed NAUC <140% of positive control)

## O=C(Nc1cc(Cl)cc(Cl)c1)C1C(C(F)(F)F)NC2(C(=O)Nc3c(Cl)cc(Cl)cc32)C1C(=O)O (centres unmarked) [Example 35]
[2]
  Nauc @ 3 μM: +++ (NAUC “+++” refers to an observed NAUC>170% of positive control)
[3]
  Nauc @ 10 μM: +++ (NAUC “+++” refers to an observed NAUC>170% of positive control)

## CN(C(=O)[C@H]1[C@H]2CC(F)(F)CN2[C@]2(C(=O)Nc3c(Cl)cc(Cl)cc32)[C@H]1C(=O)O)c1cc(Cl)cc(Cl)c1F (single isomer, unassigned) [Example 265b]
[1]
  Nauc @ 1 μM: + (NAUC “+” refers to an observed NAUC <140% of positive control)
[2]
  Nauc @ 3 μM: + (NAUC “+” refers to an observed NAUC <140% of positive control)
[3]
  Nauc @ 10 μM: + (NAUC “+” refers to an observed NAUC <140% of positive control)

## Cn1c(NC(=O)[C@H]2[C@H]3CC(F)(F)CN3[C@]3(C(=O)Nc4c(Cl)cc(Cl)cc43)[C@H]2C(=O)O)nc2ccccc21 [Example 139]
[4]
  Nauc @ 1 μM: + (NAUC “+” refers to an observed NAUC <140% of positive control)
[5]
  Nauc @ 3 μM: + (NAUC “+” refers to an observed NAUC <140% of positive control)

## O=C(Nc1cc(Cl)c(OC(F)F)c(Cl)c1)C1C2CC(F)(F)CN2C2(C(=O)Nc3c(Cl)cc(Cl)cc32)C1C(=O)O (centres unmarked) [Example 20]
[2]
  Nauc @ 3 μM: +++ (NAUC “+++” refers to an observed NAUC>170% of positive control)
[3]
  Nauc @ 10 μM: +++ (NAUC “+++” refers to an observed NAUC>170% of positive control)

## O=C(O)[C@H]1[C@@H](C(=O)N(CC2CCCC2)c2cc(Cl)cc(Cl)c2)[C@H]2CC(F)(F)CN2[C@]12C(=O)Nc1c(Cl)cc(Cl)cc12 [Example 145]
[4]
  Nauc @ 1 μM: +++ (NAUC “+++” refers to an observed NAUC>170% of positive control)
[5]
  Nauc @ 3 μM: +++ (NAUC “+++” refers to an observed NAUC>170% of positive control)
[6]
  Nauc @ 10 μM: +++ (NAUC “+++” refers to an observed NAUC>170% of positive control)

## Cn1cc(N(CC2CC2)C(=O)[C@H]2[C@H]3CC(F)(F)CN3[C@]3(C(=O)Nc4c(Cl)cc(Cl)cc43)[C@H]2C(=O)O)c(C(F)(F)F)n1 [Example 166]
[4]
  Nauc @ 1 μM: + (NAUC “+” refers to an observed NAUC <140% of positive control)
[5]
  Nauc @ 3 μM: + (NAUC “+” refers to an observed NAUC <140% of positive control)

## CCN(C(=O)[C@H]1[C@H]2CC(F)(F)CN2[C@]2(C(=O)Nc3c(Cl)cc(Cl)cc32)[C@H]1C(=O)O)c1cc(Cl)cc(Cl)c1 [Example 171]
[4]
  Nauc @ 1 μM: +++ (NAUC “+++” refers to an observed NAUC>170% of positive control)
[5]
  Nauc @ 3 μM: +++ (NAUC “+++” refers to an observed NAUC>170% of positive control)
[6]
  Nauc @ 10 μM: +++ (NAUC “+++” refers to an observed NAUC>170% of positive control)

## CC1(C)CC2C(C(=O)Nc3cc(Cl)cc(Cl)c3)C(C(=O)O)C3(C(=O)Nc4c(Cl)cc(Cl)cc43)N2C1 (centres unmarked) [Example 13]
[2]
  Nauc @ 3 μM: +++ (NAUC “+++” refers to an observed NAUC>170% of positive control)
[3]
  Nauc @ 10 μM: +++ (NAUC “+++” refers to an observed NAUC>170% of positive control)

## CN(C)S(=O)(=O)NC(=O)C1C(C(=O)Nc2cc(Cl)cc(Cl)c2)C2C[C@](C)(O)CN2C12C(=O)Nc1c(Cl)cc(Cl)cc12 (stereo partly drawn) [Example 248, (6′S)-5,7-dichloro-N1′-(3,5-dichlorophenyl)-N2′-(N,N-dimethylsulfamoyl)-6′-hydroxy-6′-methyl-2-oxo-1′,2′,5′,6′,7′,7a′-hexahydrospiro[indoline-3,3′-pyrrolizine]-1,2′-dicarboxamide]
[1]
  Nauc @ 1 μM: + (NAUC “+” refers to an observed NAUC <140% of positive control)
[2]
  Nauc @ 3 μM: +++ (NAUC “+++” refers to an observed NAUC>170% of positive control)
[3]
  Nauc @ 10 μM: +++ (NAUC “+++” refers to an observed NAUC>170% of positive control)

## CN(C(=O)[C@H]1[C@H]2CC(F)(F)CN2[C@]2(C(=O)Nc3c(Cl)cc(Cl)cc32)[C@H]1C(=O)O)c1cccc(C(F)(F)F)n1 [Example 114]
[1]
  Nauc @ 1 μM: +++ (NAUC “+++” refers to an observed NAUC>170% of positive control)
[2]
  Nauc @ 3 μM: ++ (NAUC “++” refers to an observed NAUC 170-140% of positive control)
[3]
  Nauc @ 10 μM: +++ (NAUC “+++” refers to an observed NAUC>170% of positive control)

## CC(C)(C)c1ccc(CCNC(=O)C2C3CC(F)(F)CN3C3(C(=O)Nc4c(Cl)cc(Cl)cc43)C2C(=O)O)cc1 (centres unmarked) [Example 46]
[2]
  Nauc @ 3 μM: +++ (NAUC “+++” refers to an observed NAUC>170% of positive control)
[3]
  Nauc @ 10 μM: +++ (NAUC “+++” refers to an observed NAUC>170% of positive control)

## O=C(Nc1cncc(C(F)(F)F)n1)C1C2C[C@H](C(F)(F)F)CN2C2(C(=O)Nc3c(Cl)cc(Cl)cc32)C1C(=O)O (some centres unmarked) [Example 18]
[2]
  Nauc @ 3 μM: + (NAUC “+” refers to an observed NAUC <140% of positive control)
[3]
  Nauc @ 10 μM: +++ (NAUC “+++” refers to an observed NAUC>170% of positive control)

## O=C(Nc1cc(Cl)cc(Cl)c1)C1CN(CC(F)(F)F)C2(C(=O)Nc3c(Cl)cc(Cl)cc32)C1C(=O)O (centres unmarked) [Example 79a]
[1]
  Nauc @ 1 μM: + (NAUC “+” refers to an observed NAUC <140% of positive control)
[2]
  Nauc @ 3 μM: + (NAUC “+” refers to an observed NAUC <140% of positive control)
[3]
  Nauc @ 10 μM: + (NAUC “+” refers to an observed NAUC <140% of positive control)

## O=C(Nc1cc(Cl)cc(Cl)c1)C1CN(CC(F)(F)F)C2(C(=O)Nc3c(Cl)cc(Cl)cc32)C1C(=O)O (centres unmarked) [Example 79b]
[1]
  Nauc @ 1 μM: + (NAUC “+” refers to an observed NAUC <140% of positive control)
[2]
  Nauc @ 3 μM: + (NAUC “+” refers to an observed NAUC <140% of positive control)
[3]
  Nauc @ 10 μM: ++ (NAUC “++” refers to an observed NAUC 170-140% of positive control)

## CC(C)(C)CN(C(=O)[C@H]1[C@H]2CC(F)(F)CN2[C@]2(C(=O)Nc3c(Cl)cc(Cl)cc32)[C@H]1C(=O)O)c1cc(Cl)cc(Cl)c1 [Example 110, (1′R,2′S,3R,7a′R)-5,7-dichloro-1-((3,5-dichlorophenyl)(neopentyl)carbamoyl)-6′,6′-difluoro-2-oxo-1′,2′,5′,6′,7′,7a′-hexahydrospiro[indoline-3,3′-pyrrolizine]-2′-carboxylic acid]
[4]
  Nauc @ 1 μM: +++ (NAUC “+++” refers to an observed NAUC>170% of positive control)
[5]
  Nauc @ 3 μM: +++ (NAUC “+++” refers to an observed NAUC>170% of positive control)
[6]
  Nauc @ 10 μM: + (NAUC “+” refers to an observed NAUC <140% of positive control)

## CC(C)(C)c1cccc(C(C)(C)CNC(=O)C2C3CC(F)(F)CN3C3(C(=O)Nc4c(Cl)cc(Cl)cc43)C2C(=O)O)c1 (single isomer, unassigned) [Example 288a, 1′-((2-(3-(tert-butyl)phenyl)-2-methylpropyl)carbamoyl)-5,7-dichloro-6′,6′-difluoro-2-oxo-1′,2′,5′,6′,7′,7a′-hexahydrospiro[indoline-3,3′-pyrrolizine]-2′-carboxylic acid]
[1]
  Nauc @ 1 μM: +++ (NAUC “+++” refers to an observed NAUC>170% of positive control)
[2]
  Nauc @ 3 μM: +++ (NAUC “+++” refers to an observed NAUC>170% of positive control)
[3]
  Nauc @ 10 μM: +++ (NAUC “+++” refers to an observed NAUC>170% of positive control)

## CN(C(=O)[C@H]1[C@H]2CC(F)(F)CN2[C@]2(C(=O)Nc3c(Cl)cc(Cl)cc32)[C@H]1C(=O)O)c1cc(Cl)cc(Cl)c1 [Example 169]
[4]
  Nauc @ 1 μM: ++ (NAUC “++” refers to an observed NAUC 170-140% of positive control)
[5]
  Nauc @ 3 μM: +++ (NAUC “+++” refers to an observed NAUC>170% of positive control)
[6]
  Nauc @ 10 μM: +++ (NAUC “+++” refers to an observed NAUC>170% of positive control)
